How the values were obtained:
[1] = test system: S. aureus (ATCC # 6538); test: Time kill activity (ASTM E 2315), log reduction; format: cell-based; conditions: 30 seconds
Procedure: (§1) In this test, a diluted aliquot of the composition is brought into contact with a known population of test bacteria for a specified time period at a specified temperature. The test composition is neutralized at the end of the time period, which arrests the antimicrobial activity of the composition. The percent or, alternatively, log reduction from the original bacteria population is calculated. In general, the time kill method is known to those skilled in the art. […] The choice of which concentration to use is at the discretion of the investigator, and suitable concentrations are readily determined by those skilled in the art. All testing if performed in triplicate, the results are combined, and the average log reduction is reported. • (c) The choice of contact time period also is at the discretion of the investigator. Any contact time period can be chosen. Typical contact times range from 10 second to 5 minutes, with 30 seconds and 1 minute being typical contact times. The contact temperature also can be any temperature, typically room temperature, or about 25 degrees Celsius. • (d) The microbial suspension, or test inoculum, is prepared by growing a microbial culture on any appropriate solid media (e.g., agar). The microbial population then is washed from the agar with sterile physiological saline and the population of the microbial suspension is adjusted to about 10^8 colony forming units per ml (cfu/ml). • (e) The table below lists the test microbial cultures used in the following tests and includes the name of the bacteria, the ATCC (American Type Culture Collection) identification number, and the abbreviation for the name of the organism used hereafter.
(§2) The log reduction is calculated using the formula: Log reduction=log10(numbers control)−log10(test sample survivors). Foam Height Determination

[2] = test system: E. coli (ATCC # 112229); test: Time kill activity (ASTM E 2315), log reduction; format: cell-based, Escherichia coli; conditions: 30 seconds
Procedure: as §1, §2

[3] = active at 2% w/w in the composition of formulation example 15, pH 6.25
[4] = active at 4% w/w in the composition of formulation example 15, pH 6.25
[5] = active at 0.65% w/w in the composition of formulation example 15, pH 6.25

| Molecule | S. Aureus log reduction [1, 3] | S. Aureus log reduction [1, 4] | E. coli log reduction [2, 3] | E. coli log reduction [2, 4] | S. Aureus log reduction [1, 5] | E. coli log reduction [2, 5] |
| --- | --- | --- | --- | --- | --- | --- |
| N=C(NCCCCCCNC(=N)NC(=N)Nc1ccc(Cl)cc1)NC(=N)Nc1ccc(Cl)cc1.O=C(O)[C@H](O)[C@@H](O)[C@H](O)[C@H](O)CO.O=C(O)[C@H](O)[C@@H](O)[C@H](O)[C@H](O)CO [Chlorohexidine Gluconate] | >5.39 | >5.39 | >5.73 | >5.73 |  |  |
| CC(C)(C)CC(C)(C)c1ccc(OCCOCC[N+](C)(C)Cc2ccccc2)cc1 [Benzethonium Chloride] |  |  |  |  | >5.39 | >5.73 |
| Polyhexamethylene Biguanide |  |  |  |  | 3.10 | >5.73 |
| CCCCCCCCCC[N+](C)(C)CCCCCCCCCC.[Cl-] [Didecyl Dimethyl Ammonium Chloride] |  |  |  |  | >5.39 | >5.73 |
